Values of other authors, collected in patent US6511813B1, “Elongation factor P (EFP) and assays and antimicrobial treatments related to the same” (Pharmacia & Upjohn Company, priority 1999, dated 2003).

Experiments:
peptidyltransferase [1] = tested on: peptidyltransferase
[2] = tested on: fMet-tRNAfMet/ribosome translation complex
peptidyltransferase [3] = tested on: peptidyltransferase; remark: listed apart in the source

Compound	effect on the peptide-bond synthesis which occurs in the absence of efp (peptidyltransferase [1])	effect on formation of the fMet-tRNAfMet/ribosome translation complex [2]	effect on efp reaction (efp)	further results
[H]/N=C(/N)N[C@H]1[C@H](O)[C@@H](O)[C@H](O[C@@H]2O[C@@H](C)[C@](O)(C=O)[C@H]2O[C@@H]2O[C@@H](CO)[C@H](O)[C@@H](O)[C@@H]2NC)[C@@H](N/C(N)=N\[H])[C@@H]1O [Streptomycin]	–	–	–	inhibition of the efp-mediated reaction (efp; at 2×10^−5 M): potent inhibitor
neomycin	no effect	no effect	inhibit only about 20% or have no effect	–
C=C(NC(=O)C(=C)NC(=O)c1csc(C2=N[C@@H]3c4csc(n4)[C@H]4NC(=O)c5csc(n5)[C@H]([C@](C)(O)[C@@H](C)O)NC(=O)[C@H]5CSC(=N5)/C(=C/C)NC(=O)[C@H]([C@@H](C)O)NC(=O)c5csc(n5)[C@]3(CC2)NC(=O)[C@H](C)NC(=O)C(=C)NC(=O)[C@H](C)NC(=O)[C@H]([C@@H](C)CC)N[C@@H]2C=Cc3c([C@H](C)O)cc(nc3[C@H]2O)C(=O)O[C@@H]4C)n1)C(N)=O [thiostrepton]	no effect	no effect	inhibit only about 20% or have no effect	–
CC[C@H]1OC(=O)[C@H](C)[C@@H](O[C@H]2C[C@@](C)(OC)[C@@H](O)[C@H](C)O2)[C@H](C)[C@@H](O[C@@H]2O[C@H](C)C[C@H](N(C)C)[C@H]2O)[C@](C)(O)C[C@@H](C)C(=O)[C@H](C)[C@@H](O)[C@]1(C)O [Erythromycin]	–	–	–	effect on the efp reaction (efp; at 5×10^−5): no apparent effect
CCC[C@@H]1C[C@@H](C(=O)N[C@@H]([C@H]2O[C@H](SC)[C@H](O)[C@@H](O)[C@H]2O)[C@@H](C)O)N(C)C1 [Lincomycin]	–	–	nullifies the ability of efp to stimulate synthesis of peptide bonds	effect on the puromycin reaction (peptidyltransferase [3]): inhibits; effect on the synthesis of polyphenylalanine (ribosome): marginal effects
